The results in this text go back to ChEMBL document CHEMBL4014298, “Discovery of a series of 8-(1-phenylpyrrolidin-2-yl)-6-carboxamide-2-morpholino-4H-chromen-4-one as PI3Kβ/δ inhibitors for the treatment of PTEN-deficient tumours” (Bioorg Med Chem Lett, 2017).

This assay addresses T1, Phosphatidylinositol 4,5-bisphosphate 3-kinase catalytic subunit delta isoform (Homo sapiens, UniProt O00329).
T1 sequence (O00329 whole entry): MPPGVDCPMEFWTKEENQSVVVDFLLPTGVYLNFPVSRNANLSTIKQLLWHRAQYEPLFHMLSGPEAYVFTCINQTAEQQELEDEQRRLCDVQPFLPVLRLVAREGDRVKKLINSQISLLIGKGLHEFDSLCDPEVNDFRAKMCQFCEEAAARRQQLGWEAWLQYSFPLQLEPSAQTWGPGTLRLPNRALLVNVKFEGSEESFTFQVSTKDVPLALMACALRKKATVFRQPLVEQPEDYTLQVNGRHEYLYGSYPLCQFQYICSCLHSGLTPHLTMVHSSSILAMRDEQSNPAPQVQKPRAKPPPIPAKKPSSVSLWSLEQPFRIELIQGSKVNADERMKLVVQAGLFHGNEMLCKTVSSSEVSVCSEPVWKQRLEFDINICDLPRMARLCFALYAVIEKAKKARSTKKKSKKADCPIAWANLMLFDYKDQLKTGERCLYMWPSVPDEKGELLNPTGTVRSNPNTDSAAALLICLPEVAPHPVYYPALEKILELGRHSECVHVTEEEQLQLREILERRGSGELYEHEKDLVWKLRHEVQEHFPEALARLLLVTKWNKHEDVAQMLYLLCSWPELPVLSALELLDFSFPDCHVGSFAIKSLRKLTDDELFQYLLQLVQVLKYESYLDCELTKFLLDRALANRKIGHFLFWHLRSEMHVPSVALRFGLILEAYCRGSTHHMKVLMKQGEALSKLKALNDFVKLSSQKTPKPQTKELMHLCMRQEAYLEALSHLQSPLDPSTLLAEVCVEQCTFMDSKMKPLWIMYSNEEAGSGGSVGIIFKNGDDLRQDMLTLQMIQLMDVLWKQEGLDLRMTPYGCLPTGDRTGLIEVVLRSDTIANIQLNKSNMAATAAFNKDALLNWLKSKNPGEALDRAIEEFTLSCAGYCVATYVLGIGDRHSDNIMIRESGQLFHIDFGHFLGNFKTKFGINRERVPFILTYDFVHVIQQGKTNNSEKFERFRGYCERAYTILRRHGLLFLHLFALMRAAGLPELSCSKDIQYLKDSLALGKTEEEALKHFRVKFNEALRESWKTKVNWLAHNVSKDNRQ
As to the kind of experiment: Inhibition of recombinant human PI3Kdelta using PIP2 as substrate preincubated for 20 mins followed by substrate addition measured after 80 mins in presence of ATP by Kinase Glo luminescence assay. (Kinase-Glo measures the ATP left after a reaction by luminescence.)

Consider `O=C(c1cc([C@H]2CCCN2c2cc(F)cc(F)c2)c2oc(N3CCOCC3)cc(=O)c2c1)N1CCOCC1`, for which the IC50 (usually the midpoint of a concentration-inhibition curve) worked out at 8.6 nM.
